From patent publication US10155259B2 (Merck Sharp & Dohme B.V., priority 2011, dated 2018) come the findings set out here.

pIC50: −log10 of the molar value. Bounds are passed on as bounds.

The target in the assay is T1, human FSH receptor (Homo sapiens, UniProt P23945).
T1 construct: expressed in transfected cells; host or cells: CHO cells, stably transfected; cotransfected with CRE-luciferase reporter
T1 sequence (P23945 18-695): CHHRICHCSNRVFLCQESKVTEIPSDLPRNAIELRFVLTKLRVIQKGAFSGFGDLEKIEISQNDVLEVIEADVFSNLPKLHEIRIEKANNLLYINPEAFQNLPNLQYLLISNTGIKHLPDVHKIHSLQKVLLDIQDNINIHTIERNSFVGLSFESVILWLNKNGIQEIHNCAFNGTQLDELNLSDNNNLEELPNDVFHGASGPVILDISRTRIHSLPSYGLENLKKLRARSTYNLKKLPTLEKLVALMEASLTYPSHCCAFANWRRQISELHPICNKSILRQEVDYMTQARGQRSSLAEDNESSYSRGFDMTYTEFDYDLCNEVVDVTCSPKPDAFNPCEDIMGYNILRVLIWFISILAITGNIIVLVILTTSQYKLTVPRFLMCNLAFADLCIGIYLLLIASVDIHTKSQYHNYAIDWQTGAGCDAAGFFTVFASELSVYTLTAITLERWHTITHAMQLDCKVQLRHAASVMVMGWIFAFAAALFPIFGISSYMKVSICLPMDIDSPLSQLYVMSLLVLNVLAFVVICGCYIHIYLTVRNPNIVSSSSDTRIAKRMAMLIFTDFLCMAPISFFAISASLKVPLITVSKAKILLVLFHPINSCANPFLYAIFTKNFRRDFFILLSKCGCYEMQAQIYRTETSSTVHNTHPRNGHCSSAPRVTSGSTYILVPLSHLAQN
Nature of the assay: Antagonistic activity of compounds at the human FSH receptor expressed in CHO cells (CRE-luciferase reporter). The format is cell-based. The note with it: CHO cells stably transfected with human FSH receptor and CRE/luciferase reporter; together with 49 μM recFSH; 4 hours incubation; 1% DMSO; read-out: IC50 (concentration of test compound causing half-maximal inhibition of the maximally attainable inhibition of the luciferase stimulation). Here is the method: Antagonistic Activity of Compounds at the Human FSH Receptor Expressed in CHO Cells
Antagonistic activity of the compounds at the human FSH receptor was determined in Chinese Hamster Ovary (CHO) cells stably transfected with the human FSH receptor and cotransfected with a cAMP responsive element (CRE)/promotor directing the expression of a firefly luciferase reporter gene. Binding of the compounds to the Gs protein-coupled FSH receptor will result in an increase of cAMP, which in turn will induce an increased transactivation of the luciferase reporter. The cells (7,500 cells/well of a 384 well plate) were incubated in Dulbecco' minimal essential F12 modified medium (Invitrogen), supplemented with 1 μg/ml bovine insulin, 5 μg/ml human apo-transferrin, 100 U/ml penicillin G and 100 μg/ml streptomycin with the test compounds (concentration between 0.316 nM and 10.0 μM) in duplicate together with […] (which, at this concentration in the absence of test compound, induces 80% of the maximal luciferase stimulation) in a humidified atmosphere (95%) at 5-7% CO2 and 37° C. The final concentration of DMSO was 1%. After 4 hours of incubation, plates were allowed to adjust to room temperature for 1 hour. Then, SteadyLite (PerkinElmer) solution was added to the wells and cells were allowed to lyse for at least 1 hour at room temperature. Subsequently, luciferase activity was measured in a luminescence counter. The signal is expressed as counts per second (cps). The IC50 (concentration of test compound causing half-maximal (50%) inhibition of the maximally attainable inhibition of the luciferase stimulation by the compound) and efficacy of the compounds were determined using the software program MathIQ (version 2.3, ID Business Solutions Limited).
(Reporter assays use an easily measured gene product as a stand-in for the process of interest.)
Consider `COc1cc2c(cc1C(C)=C(C)C)-c1cc(C(=O)N[C@@H](CO)Cc3c[nH]c4ccccc34)c(-c3cccc(F)c3)n1CC2` [Example 46, (R)-3-(3-fluorophenyl)-N-(1-hydroxy-3-(1H-indol-3-yl)propan-2-yl)-8-methoxy-9-(3-methylbut-2-en-2-yl)-5,6-dihydropyrrolo[2,1-a]isoquinoline-2-carboxamide], for which the pIC50 is 6.00 to 7.00.
The value for `COc1cc2c(cc1-c1cnc(N(C)C)nc1)-c1cc(C(=O)N[C@@H](CO)Cc3c[nH]c4ccccc34)c(-c3cccc(F)c3)n1CC2` [Example 51, (R)-9-(2-(dimethylamino)pyrimidin-5-yl)-3-(3-fluorophenyl)-N-(1-hydroxy-3-(1H-indol-3-yl)propan-2-yl)-8-methoxy-5,6-dihydropyrrolo[2,1-a]isoquinoline-2-carboxamide] was 6.00 to 7.00; that for `COc1cccc(-c2c(C(=O)N[C@@H](CO)Cc3c[nH]c4ccccc34)cc3n2CCc2cc(OC)c(OC)cc2-3)c1` [Example 12, (R)—N-(1-hydroxy-3-(1H-indol-3-yl)propan-2-yl)-8,9-dimethoxy-3-(3-methoxyphenyl)-5,6-dihydropyrrolo[2,1-a]isoquinoline-2-carboxamide] was more than 7.00.
Regarding `COCCOc1cc2c(cc1OC)CCn1c-2cc(C(=O)N[C@@H](CO)Cc2c[nH]c3ccccc23)c1-c1cccc(F)c1` [Example 33, (R)-3-(3-fluorophenyl)-N-(1-hydroxy-3-(1H-indol-3-yl)propan-2-yl)-8-methoxy-9-(2-methoxyethoxy)-5,6-dihydropyrrolo[2,1-a]isoquinoline-2-carboxamide], the pIC50 was more than 7.00.
The value for `COc1cc2c(cc1OC)-c1cc(C(=O)N[C@@H](CO)Cc3c[nH]c4ccccc34)c(-c3ccc([N+](=O)[O-])cc3)n1CC2` [Example 9, (R)—N-(1-hydroxy-3-(1H-indol-3-yl)propan-2-yl)-8,9-dimethoxy-3-(4-nitrophenyl)-5,6-dihydropyrrolo[2,1-a]isoquinoline-2-carboxamide] was 6.00 to 7.00; that for `COc1cc2c(c(OC)c1OC)CCn1c-2cc(C(=O)N[C@@H](CO)Cc2c[nH]c3ccccc23)c1-c1ccccc1` [Example 60, (R)—N-(1-hydroxy-3-(1H-indol-3-yl)propan-2-yl)-7,8,9-trimethoxy-3-phenyl-5,6-dihydropyrrolo[2,1-a]isoquinoline-2-carboxamide] was more than 7.00; that for `COc1cc2c(cc1OC(C)C)-c1cc(C(=O)N[C@@H](CO)Cc3c[nH]c4ccccc34)c(CC(C)C)n1CC2` [Example 22, (R)—N-(1-hydroxy-3-(1H-indol-3-yl)propan-2-yl)-3-isobutyl-9-isopropoxy-8-methoxy-5,6-dihydropyrrolo[2,1-a]isoquinoline-2-carboxamide] was more than 7.00.
The value for `COc1cc2c(cc1OC)-c1cc(C(=O)N[C@@H](CO)Cc3c[nH]c4ccccc34)c(-c3ccccn3)n1CC2` [Example 11] was more than 7.00.
The value for `COc1cc2c(cc1-c1cncnc1)-c1cc(C(=O)N[C@@H](CO)Cc3c[nH]c4ccccc34)c(-c3cccs3)n1CC2` [Example 49, (R)—N-(1-hydroxy-3-(1H-indol-3-yl)propan-2-yl)-8-methoxy-9-(pyrimidin-5-yl)-3-(thiophen-2-yl)-5,6-dihydropyrrolo[2,1-a]isoquinoline-2-carboxamide] was more than 7.00; that for `COc1cc2c(cc1C(C)C(C)C)-c1cc(C(=O)N[C@@H](CO)Cc3c[nH]c4ccccc34)c(-c3cccc(F)c3)n1CC2` (stereo partly drawn) [Example 44, 3-(3-fluorophenyl)-N—((R)-1-hydroxy-3-(1H-indol-3-yl)propan-2-yl)-8-methoxy-9-(3-methylbutan-2-yl)-5,6-dihydropyrrolo[2,1-a]isoquinoline-2-carboxamide] was more than 7.00.
Turning to `COc1cc2c(cc1OCC(O)CO)-c1cc(C(=O)N[C@@H](CO)Cc3c[nH]c4ccccc34)c(-c3cccs3)n1CC2` (stereo partly drawn) [Example 40, 9-(2,3-dihydroxypropoxy)-N—((R)-1-hydroxy-3-(1H-indol-3-yl)propan-2-yl)-8-methoxy-3-(thiophen-2-yl)-5,6-dihydropyrrolo[2,1-a]isoquinoline-2-carboxamide], the pIC50 was more than 7.00.
